From patent US20100168176A1, “NOVEL COMPOUNDS, PHARMACEUTICAL COMPOSITIONS CONTAINING SAME, AND METHODS OF USE FOR SAME” (FASGEN LLC, priority 2006, published 2010)
Values after ≈ are worked out from the molar mass of the structure shown.

Legend:
[1] = system: OV; assay: XTT cytotoxicity assay, OV; assay type: cell-based
[2] = system: MCF-7 human breast cancer cells; assay: XTT cytotoxicity assay, MCF-7 (M); assay type: cell-based; details: Homo sapiens, MCF7; (M) or no code; MCF-7, 72 hours
Protocol: The XTT assay is a non-radioactive alternative for the [^51Cr] release cytotoxicity assay. XTT is a tetrazolium salt that is reduced to a formazan dye only by metabolically active, viable cells. The reduction of XTT is measured spectrophotometrically as OD490-OD650.
To measure the cytotoxicity of specific compounds against cancer cells, 9×10^3 MCF-7 human breast cancer cells, obtained from the American Type Culture Collection are plated per well in 96 well plates in DMEM medium with 10% fetal bovine serum, insulin, penicillin, and streptomycin. Following overnight culture at 37° C. and 5% CO2, the compounds to be tested, dissolved in DMSO, are added to the wells in 1 μl volume at the following concentrations: 80, 40, 20, 10, 5, 2.5, 1.25, and 0.625 μg/ml in triplicate. Additional concentrations are tested if required. 1 μl of DMSO is added to triplicate wells are the vehicle control. C75 is run at 40, 20, 10, […], 10, and 5 in triplicate as positive controls.
After 72 hours of incubation, cells are incubated for 4 hours with the XTT reagent as per manufacturer's instructions (Cell Proliferation Kit II (XTT) Roche). Plates are read at OD490 and OD650 on a Molecular Devices SpectraMax Plus Spectrophotometer. Three wells containing the XTT reagent without cells serve as the plate blank. XTT data are reported as OD490-OD650. Averages and standard error of the mean are computed using SOFTmax Pro software ([…]).
The IC50 for the compounds is defined as the concentration of drug leading to a 50% reduction in OD400-OD650 compared to controls. The OD400-OD650 are computed by the SOFTmax PRO software (Molecular Devices) for each compound concentration. IC50 is calculated by linear regression, plotting the FAS activity as percent of control versus drug concentrations. Linear regression, best-fit line, r^2, and 95% confidence intervals are determined using Prism Version 3.0 (Graph Pad Software).

[3] = system: H; assay: Crystal violet cell growth assay, H; assay type: cell-based; details: read-out: Cr. Violet (IC50)
Protocol: Crystal Violet Cell Growth Assay
The crystal violet assay measure cell growth but not cytotoxicity. This assay employs crystal violet staining of fixed cells in 96-well plates with subsequent solubilization and measurement of OD490 on a spectrophotometer. The OD490 corresponds to cell growth per unit time measured. Cells are treated with the compounds of interest or vehicle controls and IC50 for each compound is computed.
To measure the cytotoxicity of specific compounds against cancer cells, 5×10^4 MCF-7 human breast cancer cells, obtained from the American Type Culture Collection are plated per well in 24 well plates in DMEM medium with 10% fetal bovine serum, penicillin, and streptomycin. Following overnight culture at 37° C. and 5% CO2, the compounds to be tested, dissolved in DMSO, are added to the wells in 1 μl volume at the following concentrations: 50, 40, 30, 20, and 10 μg/ml in triplicate. Additional concentrations are tested if required. 1 μl of DMSO is added to triplicate wells are the vehicle control. C75 is run at 10, and 5 μg/ml in triplicate as positive controls.
After 72 hours of incubation, cells are stained with 0.5 ml of Crystal Violet stain (0.5% in 25% methanol) in each well. After 10 minutes, wells are rinsed, air dried, and then solubilized with 0.5 ml 10% sodium dodecylsulfate with shaking for 2 hours. Following transfer of 100 μl from each well to a 96-well plate, plates are read at OD490 on a Molecular Devices SpectraMax Plus Spectrophotometer Average OD490 values are computed using SOFTmax Pro Software (Molecular Devices) and IC50 values are determined by linear regression analysis using Prism version 3.02 (Graph Pad Software, San Diego).

[4] = system: MCF-7 human breast cancer cells; assay: [14C]acetate incorporation into total lipids; assay type: cell-based; details: MCF7
Protocol: Measurement of [^14 C]acetate Incorporation into Total Lipids and Determination of IC50 of Compounds
This assay measures the incorporation of [^14C]acetate into total lipids and is a measure of fatty acid synthesis pathway activity in vitro. It is utilized to measure inhibition of fatty acid synthesis in vitro.
MCF-7 human breast cancer cells cultured as above, are plated at 5×10^4 cells per well in 24-well plates. Following overnight incubation, the compounds to be tested, solubilized in DMSO, are added at 5, 10, and 20 μg/ml in triplicate, with lower concentrations tested if necessary. DMSO is added to triplicate wells for a vehicle control. C75 is run at 5 and 10 μg/ml in triplicate as positive controls. After 4 hours of incubation, 0.25 μCi of [^14C]acetate (10 μl volume) is added to each well.
After 2 hours of additional incubation, medium is aspirated from the wells and 800 μl of chloroform:methanol (2:1) and 700 μl of 4 mM MgCl2 is added to each well. Contents of each well are transferred to 1.5 Eppendorf tubes, and spun at full-speed for 2 minutes in a high-speed Eppendorf Microcentrifuge 5415D. After removal of the aqueous (upper) layer, an additional 700 μl of chloroform:methanol (2:1) and 500 μl of 4 mM MgCl2 are added to each tube and then centrifuged for 1 minutes as above. The aqueous layer is removed with a Pasteur pipette and discarded. An additional 400 μl of chloroform:methanol (2:1) and 200 μl of 4 mM MgCl2 are added to each tube, then centrifuged and aqueous layer is discarded. The lower (organic) phase is transferred into a scintillation vial and dried at 40° C. under N2 gas. Once dried, 3 ml of scintillant (APB #NBC5104) is added and vials are counted for ^14C. The Beckman Scintillation counter calculates the average cpm values for triplicates.
The IC50 for the compounds is defined as the concentration of drug leading to a 50% reduction in [^14C]acetate incorporation into lipids compared to controls. This is determined by plotting the average cpm for each inhibitor concentration tested, performing linear regression and computing the best-fit line, r^2 values, and 95% confidence intervals. The average cpm values are computed by the Beckman scintillation counter (Model LS6500) for each compound concentration. Computation of linear regression, best-fit line, r^2, and 95% confidence intervals are calculated using Prism Version 3.0 (Graph Pad Software).

[5] = system: FAO; assay: FAO SC 150 / FAO Max; details: for FAO Max: at the concentration given under E18

IC50 [4] [µg/mL] | Compound | IC50 [1] [µg/mL] | IC50 [2] [µg/mL] | IC50 [3] [µg/mL] | FAO Max: concentration at which the maximum was seen [5] | FAO SC 150 [5] | FAO Max [5]
21.3 (≈ 50.6 µM) | CCCCCCCCC1(C)SC(=O)C=C1OCC(=O)NNc1ccc(OC)cc1 (stereo not drawn) [Compound 13, (5-Methyl-5-octyl-2-oxo-thiophen-4-yloxy)-acetic-acid-N′-(4-methoxyphenyl)-hydrazide] | 18 (≈ 42.8 µM) | 9 (≈ 21.4 µM) | 12.3 (≈ 29.2 µM) | 0.098 μg/ml ug/ml | Neg | 103% at
13.3 (≈ 28.9 µM) | CCCCCCCCC1(C)SC(=O)C=C1OCC(=O)NNc1ccc(Cl)c(Cl)c1 (stereo not drawn) [Compound 15, (5-Methyl-5-octyl-2-oxo-thiophen-4-yloxy)-acetic-acid-N′-(3,4-dichlorophenyl)-hydrazide] | 15.2 (≈ 33.1 µM) | 11.4 (≈ 24.8 µM) | 8.5 (≈ 18.5 µM) | 0.395 μg/ml ug/ml | Neg | 100% at
18.3 (≈ 39.8 µM) | CCCCCCCCC1(C)SC(=O)C=C1OCC(=O)NNc1ccc(Cl)cc1Cl (stereo not drawn) [Compound 14, (5-Methyl-5-octyl-2-oxo-thiophen-4-yloxy)-acetic-acid-N′-(2,4-dichlorophenyl)-hydrazide] | 12.8 (≈ 27.9 µM) | 6.9 (≈ 15 µM) | 7.3 (≈ 15.9 µM) | 0.098 μg/ml ug/ml | Neg | 100% at
12 (≈ 29.7 µM) | CCCCCCCCC1(C)SC(=O)C=C1OCC(=O)NNc1cccc(C)c1 (stereo not drawn) [Compound 11, (5-Methyl-5-octyl-2-oxo-thiophen-4-yloxy)-acetic-acid-N′-(3-methylphenyl)-hydrazide] | 10.1 (≈ 25 µM) | 9 (≈ 22.2 µM) | 21.9 (≈ 54.1 µM) | 1.56 µg/mL | Neg | 116% @
7.2 (≈ 18.4 µM) | CCCCCCCCC1(C)SC(=O)C=C1OCC(=O)NNc1ccccc1 (stereo not drawn) [Compound 10, (5-Methyl-5-octyl-2-oxo-thiophen-4-yloxy)-acetic-acid-N′-phenylhydrazide] | 13.2 (≈ 33.8 µM) | 6.9 (≈ 17.7 µM) | 8.4 (≈ 21.5 µM) | 6.25 µg/mL | Neg | 126% at
> 80 | CCCCCCCCC1(C)SC(=O)C=C1OCC(=O)NNc1nc2ccccc2s1 (single isomer, unassigned) [Compound 17, (5-Methyl-5-octyl-2-oxo-thiophen-4-yloxy)-acetic-acid-N′-(2-benzothiazole)-hydrazide] | 38.7 (≈ 86.5 µM) | 74 (≈ 165 µM) | 17.8 (≈ 39.8 µM) | 6.25 µg/mL | 4.9 µg/mL | 167% @
